Laboratory results reported in patent publication US7125671B2, “Nucleic acid amplification with terminal-phosphate labeled nucleotides” (GE Healthcare Bio-Sciences Corp., priority 2003, dated 2006).

Columns and labels:
pUCp53 DNA = assay: PCR with additional nucleotides (FIG. 2); type: biochemical; conditions: labeled nucleotide replaces the normal dNTP; 0.2 mM MnCl2; primers P53SNP22C-51F and P53SNP22G131R
Description: (§1) Polymerase chain reaction (PCR) mixtures (20 μl) contained 20 mM Tris-HCL (pH 8.75), 10 mM KCL, 10 mM (NH4)2SO4, 2 mM MgSO4, 1 mg/ml bovine serum albumin and 0.1% (v/v) Triton X-100. The final nucleotide concentrations were 20 μM each, and 2.5 units of the DNA polymerase were used for each reaction. The initial template DNA (1–5 ng) was either pUC18 or pUCp53 (Amersham Biosciences). The initial amount of primer was 2 μmol each, and 2.5 units of the indicated DNA polymerase was used. Reactions were carried out for 15 thermal cycles of 90° C., 30 sec.; 55° C., 60 sec.; and 72° C., 300 sec. Most PCR reactions also included MnCl2 at a final concentration of 0.08–0.2 mM. Reaction products were loaded onto 1.6% agarose gels. The gels were stained with SYBR Gold (Molecular Probes) according to the manufacturers' instructions and scanned at 532 nm using a Typhoon fluorescence scanner (Amersham Biosciences). Gel size markers were a 100 bp ladder (Amersham Biosciences).
(§2) For both figures, the amplification reaction loaded in lane 1 was performed with normal dNTPs and without MnCl2. For the lanes marked 2, the dTTP was replaced by dT4P-DDAO and the reactions contained 0.2 mM MnCl2. For the lanes marked 3, the dGTP was replaced by dG4P-DDAO, and for the lanes marked 4, the dGTP was replaced by dG4P-MeCoumarin again with 0.2 mM MnCl2.

pUC18 DNA = assay: PCR with additional nucleotides, template and primers (FIG. 3); type: biochemical; conditions: labeled nucleotide replaces the normal dNTP; 0.2 mM MnCl2; −21 Forward and −28 Reverse primers
Description: as §1, §2

Tba exo-DNA polymerase = assay: PCR amplification of pUCp53 target with terminal-phosphate labeled nucleotide, gel and fluorescence detection; type: biochemical, Thermococcus barosii
Description: as §1
The DNA polymerases used for these experiments included Taq DNA polymerase, Thermo Sequenase DNA polymerase (Amersham Biosciences), Tba exo-DNA polymerase (from Thermococcus barosii, U.S. Pat. No. 5,602,011 with D141A and E143A amino acid substitutions U.S. Pat. No. 5,882,904), Pfu DNA polymerase (Strategene), KOD XL DNA polymerase (Novagen) and Deep Vent DNA polymerase (New England BioLabs).
For this experiment, either Taq DNA polymerase (lanes 1–3, 12), Thermo Sequenase (Amersham Biosciences) DNA polymerase (lanes 7–9, 11) or Tba exo-DNA polymerase (lanes 4–6, 10) were used. The MnCl2 concentration was 0 mM for the reactions resolved in lanes 1, 4, 7 and 10–12; 0.2 mM in lanes 2, 5, and 8; 0.4 mM in lanes 3, 6 and 9. For all samples, the template DNA was pUCp53 and the primers were P53SNP22C-51F and P53SNP22G131R. […]
(§3) Then the fluorescence was determined using a FarCYte fluorescence plate reader (Amersham Biosciences) using 650 nm excitation and 670 nm emission. […] The reaction product of Tba exo-DNA polymerase gave a reading of 31,000 fluorescence units.

Phi29 DNA polymerase = molecular target: T1, Phi29 DNA polymerase (Bacillus phage phi29, UniProt P03680); assay: Rolling circle amplification of salmon sperm chromosomal DNA with terminal-phosphate labeled/blocked nucleoside polyphosphates; type: biochemical; conditions: 50 μm dT4P-DDAO with dA4P-Me, dG4P-Me, dC4P-Me, BAP, 30° C.
T1 sequence (P03680 1-575): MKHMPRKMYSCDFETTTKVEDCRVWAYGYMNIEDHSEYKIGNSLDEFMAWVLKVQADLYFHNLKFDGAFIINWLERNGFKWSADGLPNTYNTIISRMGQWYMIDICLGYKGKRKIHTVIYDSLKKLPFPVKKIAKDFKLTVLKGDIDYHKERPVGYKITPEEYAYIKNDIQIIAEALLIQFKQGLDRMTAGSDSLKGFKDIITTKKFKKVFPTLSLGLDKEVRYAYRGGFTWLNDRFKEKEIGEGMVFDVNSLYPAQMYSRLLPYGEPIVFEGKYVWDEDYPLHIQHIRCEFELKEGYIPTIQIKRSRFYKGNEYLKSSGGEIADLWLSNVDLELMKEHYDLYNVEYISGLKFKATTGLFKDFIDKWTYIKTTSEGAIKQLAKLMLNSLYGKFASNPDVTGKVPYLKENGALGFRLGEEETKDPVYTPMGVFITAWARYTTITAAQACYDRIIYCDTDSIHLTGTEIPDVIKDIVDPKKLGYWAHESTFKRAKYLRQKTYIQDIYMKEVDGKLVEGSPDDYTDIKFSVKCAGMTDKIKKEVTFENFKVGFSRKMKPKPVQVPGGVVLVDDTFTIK
Description: Varying amounts of denatured salmon sperm chromosomal DNA was taken in 25 mM Tris: borate buffer, pH 8.0, containing 5 mM ammonium sulfate, 75 mM NaCl, 5 mM MgCl2, 1 mM MnSO4, 0.01% Tween-20, 400 ng Phi29 DNA polymerase, 40 μm nuclease resistant random hexamers, 0.03 units of BAP and 50 μm each of dA4P-Me, dG4P-Me, dC4P-Me and dT4P-DDAO. Reactions were incubated at 30° C. in a Tecan fluorescent plate reader and were read every five minutes at excitation and emission wavelengths optimized for DDAO. Raw fluorescence counts are plotted as a function of time.

KOD XL DNA polymerase = assay: PCR amplification of pUCp53 target with terminal-phosphate labeled nucleotide; type: biochemical; conditions: same conditions as FIG. 1, DDAO-dT4P replaced dTTP
Description: as §1
(§4) The DNA polymerases used for these experiments included Taq DNA polymerase, Thermo Sequenase DNA polymerase (Amersham Biosciences), Tba exo-DNA polymerase (from Thermococcus barosii, U.S. Pat. No. 5,602,011 with D141A and E143A amino acid substitutions U.S. Pat. No. 5,882,904), Pfu DNA polymerase (Strategene), KOD XL DNA polymerase (Novagen) and Deep Vent DNA polymerase (New England BioLabs). […]

Pfu DNA polymerase = molecular target: T2, Pfu DNA polymerase (Pyrococcus furiosus, UniProt P61875); assay: as above; type: biochemical; conditions: same conditions as FIG. 1, DDAO-dT4P replaced dTTP
T2 construct: purchased Strategene (so in the source); Stratagene)
T2 sequence (P61875 1-775): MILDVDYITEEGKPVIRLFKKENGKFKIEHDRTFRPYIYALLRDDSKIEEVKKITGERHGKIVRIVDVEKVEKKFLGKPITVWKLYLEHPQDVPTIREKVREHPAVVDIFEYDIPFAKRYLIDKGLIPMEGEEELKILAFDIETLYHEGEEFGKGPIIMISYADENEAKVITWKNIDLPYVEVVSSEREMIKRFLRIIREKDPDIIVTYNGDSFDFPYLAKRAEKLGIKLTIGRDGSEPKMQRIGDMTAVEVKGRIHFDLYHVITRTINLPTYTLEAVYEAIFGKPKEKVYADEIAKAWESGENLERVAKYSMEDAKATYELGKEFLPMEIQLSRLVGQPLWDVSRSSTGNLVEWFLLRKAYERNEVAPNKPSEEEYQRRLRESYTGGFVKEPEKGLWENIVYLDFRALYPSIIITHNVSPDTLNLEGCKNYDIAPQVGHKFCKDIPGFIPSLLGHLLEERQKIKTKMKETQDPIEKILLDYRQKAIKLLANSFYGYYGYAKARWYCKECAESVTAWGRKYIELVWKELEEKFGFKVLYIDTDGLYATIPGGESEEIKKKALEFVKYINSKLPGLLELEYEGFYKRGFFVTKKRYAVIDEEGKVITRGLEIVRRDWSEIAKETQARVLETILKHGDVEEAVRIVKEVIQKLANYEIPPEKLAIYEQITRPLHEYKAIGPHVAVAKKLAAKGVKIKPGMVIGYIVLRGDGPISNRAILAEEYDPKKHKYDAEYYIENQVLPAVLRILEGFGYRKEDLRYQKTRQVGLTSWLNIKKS
Description: as §1, §4

Taq DNA polymerase = Taq DNA polymerase (Thermus aquaticus, UniProt P19821); assay: PCR amplification of pUCp53 target with terminal-phosphate labeled nucleotide, gel and fluorescence detection; type: biochemical; conditions: lane 2 of FIG. 1, 0.2 mM MnCl2
Sequence of Taq DNA polymerase (P19821 whole entry): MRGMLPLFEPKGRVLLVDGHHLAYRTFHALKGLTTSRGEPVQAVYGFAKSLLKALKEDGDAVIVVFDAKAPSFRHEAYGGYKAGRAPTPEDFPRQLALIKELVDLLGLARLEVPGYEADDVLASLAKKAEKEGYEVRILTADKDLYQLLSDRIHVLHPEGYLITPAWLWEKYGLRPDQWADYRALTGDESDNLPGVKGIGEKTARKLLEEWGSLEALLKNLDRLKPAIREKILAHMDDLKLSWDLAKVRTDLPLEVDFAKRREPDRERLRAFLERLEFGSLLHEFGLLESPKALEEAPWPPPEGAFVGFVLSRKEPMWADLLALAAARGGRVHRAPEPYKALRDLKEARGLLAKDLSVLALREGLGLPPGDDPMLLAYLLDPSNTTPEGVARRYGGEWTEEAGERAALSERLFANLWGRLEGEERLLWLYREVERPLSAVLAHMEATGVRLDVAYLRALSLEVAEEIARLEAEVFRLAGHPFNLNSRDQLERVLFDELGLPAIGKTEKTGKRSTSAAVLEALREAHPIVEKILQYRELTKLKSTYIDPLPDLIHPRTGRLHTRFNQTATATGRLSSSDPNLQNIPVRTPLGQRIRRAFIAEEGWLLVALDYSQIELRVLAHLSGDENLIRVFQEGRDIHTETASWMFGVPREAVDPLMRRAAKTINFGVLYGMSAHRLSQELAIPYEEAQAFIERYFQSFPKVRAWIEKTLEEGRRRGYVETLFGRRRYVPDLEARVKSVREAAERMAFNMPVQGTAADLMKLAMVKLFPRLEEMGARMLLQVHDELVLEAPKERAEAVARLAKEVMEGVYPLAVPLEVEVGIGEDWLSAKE
Description: Polymerase chain reaction (PCR) mixtures (20 μl) contained 20 mM Tris-HCL (pH 8.75), 10 mM KCL, 10 mM (NH4)2SO4, 2 mM MgSO4, 1 mg/ml bovine serum albumin and 0.1% (v/v) Triton X-100. The final nucleotide concentrations were 20 μM each, and 2.5 units of the DNA polymerase were used for each reaction. The initial template DNA (1–5 ng) was either pUC18 or pUCp53 (Amersham Biosciences). The initial amount of primer was 2 μmol each, and 2.5 units of the indicated DNA polymerase was used. Reactions were carried out for 15 thermal cycles of 90° C., 30 sec.; 55° C., 60 sec.; and 72° C., 300 sec. Most PCR reactions also included MnCl2 at a final concentration of 0.08–0.2 mM. Reaction products were loaded onto 1.6% agarose gels. The gels were stained with SYBR Gold (Molecular Probes) according to the manufacturers' instructions and scanned at 532 nm using a Typhoon fluorescence scanner (Amersham Biosciences). Gel size markers were a 100 bp ladder (Amersham Biosciences). […]
as §3

T. ba polymerase = assay: PCR amplification with terminal-phosphate labeled nucleoside polyphosphates in the presence of stabilizing additives (FIG. 6); type: biochemical, Thermococcus barosii; conditions: 10–25 mM salt; dA4P-Me, dT4P-Me, dC4P-Me, dG4P-FlEt; 0.25 mM MnCl2; M13 DNA; 35 cycles
Description: Polymerase chain reaction (PCR) mixtures (20 μl) contained 25 mM Hepes (pH 8.1), 10 mM KCl, 2 mM MgSO4, 0.25 mM MnCl2, 1 mg/ml bovine serum albumin, 0.01% (v/v) Tween-20 and 10–25 mM salt as shown in FIG. 6. Each sample also contained 20 μm each of dA4P-Me, dT4P-Me, dC4P-Me, 200 μm dG4P-FlEt, 0.006 units/μl BAP, 2 units of T. ba polymerase, 0.1 μm −40 M13 forward primer, 0.1 μm −28 M13 reverse primer and 0.2 ng M13 DNA. In addition to the terminal-phosphate labeled nucleotide, terminal methyl-blocked dNTP's were used instead of normal dNTP's to prevent degradation by BAP (phosphatase). Latter is required for signal generation from dye-polyphosphate after the nucleotide is incorporated into DNA by polymerase. Reactions were carried out for 35 thermal cycles of 90° C., 30 sec.; 55° C., 30 sec.; and 65° C., 300 sec. Reaction products were loaded onto 1.6% agarose gels. The gels were stained with SYBR Gold (Molecular Probes) according to the manufacturers' instructions and scanned at 532 nm using a Typhoon fluorescence scanner (Amersham Biosciences). Gel size markers were a 100 bp ladder (Amersham Biosciences).

[1] = Non-enzymatic hydrolysis of dT4P-DDAO in the presence of MnCl2, effect of other salts (FIG. 5); conditions: 10 or 25 mM salt; 0.5 mM MnCl2; 25 mM Hepes pH 8.1; 95° C. for 60 minutes
Description: Twenty μl of 25 mM Hepes, pH 8.1, containing 0.5 mM MnCl2, 1 μm dT4P-DDAO and 10 or 25 mM inorganic or organic salt (see FIG. 5) was heated at 95° C. for 60 minutes. 4 μl of each sample was treated with BAP as described above and read on Tecan ultra plate reader. An unheated sample with MnCl2 (water lane) and a heated sample without Hepes and MnCl2 were used as controls. Fluorescence counts were converted into % degradation as described above.

Molecule: CC1(C)C2=C(Cl)C(=O)C(Cl)=CC2=Nc2ccc(OP(=O)(O)OP(=O)(O)OP(=O)(O)OP(=O)(O)OC[C@H]3OC(n4cnc5c(=O)[nH]c(N)nc54)CC3O)cc21 (stereo partly drawn) [dG4P-DDAO, δ-9H(1,3-dichloro-9,9-dimethylacridin-2-one-7-yl)-deoxyguanosine-5′-tetraphosphate]
- PCR amplification product on gel (pUCp53 DNA): successfully produced product of the expected size
- PCR amplification product on gel (pUC18 DNA): successfully produced product of the expected size

Molecule: Cc1cc(=O)oc2cc(OP(=O)(O)OP(=O)(O)OP(=O)(O)OP(=O)(O)OC[C@H]3O[C@@H](n4cnc5c(=O)[nH]c(N)nc54)C[C@@H]3O)ccc12 [dG4P-MeCoumarin, 2′-Deoxyguanosine-5′-(δ-7-(4-methylumbelliferone)) tetraphosphate]
- PCR amplification product on gel (pUCp53 DNA): successfully produced product of the expected size
- PCR amplification product on gel (pUC18 DNA): successfully produced product of the expected size

Molecule: Cc1cn([C@H]2CC(O)[C@@H](COP(=O)(O)OP(=O)(O)OP(=O)(O)OP(=O)(O)Oc3ccc4c(c3)C(C)(C)C3=C(Cl)C(=O)C(Cl)=CC3=N4)O2)c(=O)[nH]c1=O (stereo partly drawn) [dT4P-DDAO, δ-9H(1,3-dichloro-9,9-dimethylacridin-2-one-7-yl)-deoxythymidine-5′-tetraphosphate]
- increase of PCR yield in the presence of MnCl2 (Tba exo-DNA polymerase; 0.2–0.4 mM MnCl2 versus 0 mM, DDAO-dT4P replaced dTTP): at least 5 fold
- PCR product on agarose gel (Tba exo-DNA polymerase; DDAO-dT4P replaced dTTP, pUCp53 template, 15 thermal cycles, FIG. 1): significant amounts of PCR product were made
- fluorescence reading of PCR reaction product after shrimp alkaline phosphatase (Tba exo-DNA polymerase; lane 5 of FIG. 1, 0.2 mM MnCl2, 650 nm excitation, 670 nm emission): 31,000 fluorescence units
- rate of product formation (slope 20–40 minutes) versus amount of input DNA (Phi29 DNA polymerase; FIG. 10): linear correlation
- fluorescence signal (Phi29 DNA polymerase; absence of input DNA, FIG. 9): no signal is produced
- PCR amplification product on gel (pUCp53 DNA): successfully produced product of the expected size
- PCR amplification product on gel (pUC18 DNA): successfully produced product of the expected size
- PCR product (KOD XL DNA polymerase): PCR product is made
- PCR product (Pfu DNA polymerase): PCR product is made
- PCR product (Taq DNA polymerase; DDAO-dT4P replaced dTTP): little or no detectable PCR product
- fluorescence reading of PCR reaction product after shrimp alkaline phosphatase (Taq DNA polymerase; 650 nm excitation, 670 nm emission): 5500 fluorescence units

Molecule: O=C(O)CP(=O)(O)O [phosphonoacetate]
- PCR product formation in the presence of the additive (T. ba polymerase): No product formed
- stabilization of dT4P-DDAO (% degradation) [1]: stabilize the nucleotide

Molecule: CCCS(=O)(=O)O [propane sulfonate]
- stabilization of dT4P-DDAO (% degradation) [1]: minimal

Molecule: [Na+].[Na+].[O]=[Mo](=[O])([O-])[O-] [sodium molybdate]
- PCR product formation in the presence of the additive (T. ba polymerase): PCR product was separated

Molecule: [Na+].[Na+].[O]=[W](=[O])([O-])[O-] [sodium tungstate]
- PCR product formation in the presence of the additive (T. ba polymerase): PCR product was separated

Molecule: sodium vanadate
- PCR product formation in the presence of the additive (T. ba polymerase): No product formed
